Where a SMILES comes first, the peptide text is derived from it. The star is where a group is joined. Cbz = O=C(OCc1ccccc1)*
Experiments:
[1] = system: cell lines without ERCC1-202 isoform expression (A549 ERCC1-deficient); assay: Cell cycle / DNA content by flow cytometry after cisplatin; assay type: cell-based, human; details: 30 and 300 nM for 48 hours
Procedure: To study effect of cisplatin on cell cycle arrest, cells were treated with 30 nM or 300 nM of cisplatin for 48 h. For high DNA content analysis, cells were blocked in G2/M cell cycle phase with Karyomax colcemid solution (Gibco-Invitrogen) at 0.1 μg/ml for 6 h.
DNA content was determined in ethanol-fixed cells, stained with propidium iodide and analyzed using a Becton Dickinson FACScalibur flow cytometer and the CellQuest Pro software.

ERCC1 protein isoforms = assay: Western blot of ERCC1 protein isoforms after proteasome inhibition; assay type: cell-based, human; details: 2 μM for 24 h
Procedure: Proteins were extracted by lysis in RIPA buffer (50 mM Tris, 150 mM NaCl, 5 mM EDTA, 0.5% sodium deoxycholic acid, 0.5% NP-40, 0.1% SDS) supplemented with a protease inhibitor cocktail (Complete; Roche Molecular). For nucleus and cytoplasm protein, a first extraction and separation was done with a buffer containing 10 mM HEPES, 10 mM KCl, 1 mM DTT, 1 mM PMSF and protease inhibitor cocktail supplemented with 0.3% NP40. The nucleus fraction was next resuspended in a buffer containing 20 mM HEPES and 400 mM NaCl. Protein were then separated by SDS-PAGE and transferred to nitrocellulose membranes by the iBlot® 7-Minute Blotting System (Invitrogen). Blots were incubated with primary and secondary peroxidase-conjugated antibodies and chemiluminescent detection was done using the Dura HRP Substrate (Thermo scientific).
For proteasome inhibition, cells were treated with MG132 (Merck) at 2 μM for 24 h.

SMILES	cells blocked in G2/M cell cycle phase [1]	ERCC1 isoform protein expression level after proteasome inhibition (ERCC1 protein isoforms)
N.N.[Cl][Pt][Cl] [cisplatin]	60-80%	–
CC(C)C[C@@H](C=O)NC(=O)[C@H](CC(C)C)NC(=O)[C@H](CC(C)C)NC(=O)OCc1ccccc1 [MG132] (Cbz-Leu-Leu-Leu-aldehyde)	–	increase in ERCC1-201, -203 and -204 expression level
